Measured values from patent US7998460B2, “Prevention of deficits in neurogenesis with anti-inflammatory agents” (The Board of Trustees of the Leland Stanford Junior …, priority 2003, dated 2011).
Each block holds one molecule with its values, some of them ahead of it.

Experiments:
[1] = tested on: C57BI/6 mice; assay: Locomotor chambers and Morris water maze after LPS in mice; type: in vivo, mouse; conditions: for distance swum to hidden platform in training, NSAID alone: first training session, no LPS; for probe trial performance, NSAID alone: no LPS challenge
Method: Behavioral testing. Locomotor activity was measured in 17×17 inch chambers lined with three 16-beam infrared arrays in photocell boxes (MED Associates, Inc., St. Albans, Vt.). The mice were placed into the chambers and their locomotor activity was recorded for 20 minutes 4 days after LPS was injected (on Day 4). A 50 msec scanning rate was used for measuring beams broken. Distance traveled was analyzed for estimates of locomotion based on the movement of a given distance and resting delay (movement in a given period) using Open Field Activity software (MED Associates, Inc., St. Albans, Vt.).
Hippocampus-dependent learning and memory was assessed in the standard Morris water maze task. All hippocampus-dependent training and testing was conducted in a black circular tank (170 cm diameter×43 cm height) filled water made opaque using white non-toxic Tempra paint (Rich Art Color Co. Inc, Northvale, Calif.; training and testing). A platform (13 cm diameter×28.5 cm height) was hidden 1 cm below the water surface for platform shaping and training trials. Time and distance traveled in the pool was recorded using Videotrack Automated Behavioral Analysis System (Viewpoint Life Sciences Inc., Otterburn Park, Quebec).
Platform shaping began three days before platform training (Days 25-27). In the absence of extra-maze cues, mice were released from random points in the pool (filled with clearwater) near the platform and gently guided to the platform. Shaping trials continued until the mouse remained on the platform for 15 s over 3 consecutive trials on each of the three sessions.
[…] In the presence of extra-maze cues, the mice were released from the middle of the east, south, or west quadrant, facing the pool wall, and were given 120 s to find the platform hidden beneath opaque water in the center of the north quadrant. […] Sessions of 6 training trials (inter-trial interval of approximately 30 min) were conducted daily until all the mice located the platform in an average of 15 s or less within a session. […] Pathlength and latency were analyzed as measures of learning, swim speed was analyzed as a measure of sensorimotor ability and % time spent in outer annulus was analyzed as a measure of anxiety.
Probe Trial Testing was conducted at 1 week after mice reached criterion in the platform training phase of the experiment. The room setup was identical for platform training and probe trials, with the exception that the platform was removed from the pool during probe trials. The mice were given a single trial in which they were released from the center of the pool and then after 3 minutes were removed from the location that held the platform during training trials. Percent time and distance spent in each quadrant were analyzed as measures of memory, swim speed and total distance swum were analyzed as measures of sensorimotor ability and % time and distance spent in the outer annulus were analyzed as measures of anxiety. After the last probe trial, we ran four daily sessions of reversal trials (4 trials per session) in which mice were given 120 s to locate the platform hidden beneath opaque water in the south quadrant to better interpret whether probe trial performance was indicative of memory or perseveration. […] A visible platform session (2 trials) was administered after the final reversal trial to further test sensorimotor ability. Reversal and visible platform trial performance was scored identically to platform training performance.

[2] = tested on: adult hippocampus-derived neural precursor cells; assay: In vitro neuronal differentiation (doublecortin) of hippocampal neural progenitor cells, 60 hours; type: cell-based, rat; conditions: for effect on in vitro neurogenesis (Dcx-expressing cells relative to control): 60 hours differentiation
Description: Neuroinflammation could inhibit neurogenesis by a variety of mechanisms, including stimulation of the HPA axis with subsequent elevation of gluccocorticoids, alterations in the relationships between progenitor cells and cells of the neuro-vasculature, or direct effects of activated microglia on the precursor cells. To determine the extent to which microglial activation might directly affect neural stem/progenitor cells, microglia were stimulated in vitro with LPS. LPS is a potent activator of microglia and up-regulates the elaboration of pro-inflammatory cytokines, including IL-6 and TNF-α. LPS-stimulated or resting microglia were then co-cultured with normal neural stem cells from the hippocampus under conditions that typically stimulate the differentiation of 30 to 40% of the progenitor cells into immature Dcx-expressing neurons (normalized to a value of 1 in FIG. 2A, control). Neurogenesis in the presence of microglia was assessed as the increase or decrease in Dcx-expressing cells relative to control. Co-culture with activated, but not resting, microglia decreased in vitro neurogenesis to approximately half of control levels (FIG. 2A). LPS added directly to precursor cells had no effect on neurogenesis.
To determine if this effect was due to soluble factors or due to cell-cell contact, hippocampal precursor cells were differentiated in the presence of media pre-conditioned by resting or activated microglia.
Activated microglia produce the potent pro-inflammatory cytokines interleukin-1β (IL-1β), tumor necrosis factor-α (TNF-α), interferon-γ (INF-γ) and interleukin-6 (IL-6). Progenitor cells were allowed to differentiate in the presence of each cytokine and the relative expression of Dcx was scored after 60 hours. […] Addition of neutralizing anti-IL-6 antibody to CM from activated microglia was able to fully restore in vitro neurogenesis (FIG. 2A). This implicated IL-6 as a key inhibitor of neurogenesis in microglial CM. […] In contrast to neurogenesis, gliogenesis was unaffected by IL-6 exposure as indicated by the lack of change in the number of cells expressing the astrocyte (glial fibrillary acidic protein, GFAP) or early oligodendrocyte (NG2) markers relative to control cultures (FIG. 2E). The hippocampal precursors used in this study do express the IL-6 receptor, as confirmed by RT-PCR (FIG. 5).
Progenitor Cell Culture Adult hippocampus-derived neural precursor cells were isolated from adult rat hippocampus and cultured as previously described. Briefly, adult female Fisher-344 rats were deeply anesthetized with sodium pentobarbital and were dissected immediately. Hippocampi were enzymatically dissociated with papain (2.5 U/ml; Worthington, Freehold, N.J.)-dispase II (1 U/ml; Boehringer Mannheim, Indianapolis, Ind.)-DNase I (250 U/ml, Worthington) solution. Digested tissue was then washed with DMEM-10% fetal calf serum (FCS) and subsequently mixed with PBS-equilibrated Percoll solution to a final concentration of 35% Percoll. The Percoll solution was made by mixing nine parts of Percoll (Amersham Pharmacia Biotech, Uppsala, Sweden) with one part of 10× PBS. The cell suspension was then fractionated by centrifugation for 10 min at 1000×gravity. Floating myelin and tissue debris were discarded and the cell pellet re-suspended in 65% Percoll solution and fractionated again by centrifugation for 10 min at 1000×g. The floating neural precursors were collected, washed free of Percoll, and plated onto poly-L-ornithine/laminin-coated dishes in DMEM/F12 (1:1) containing 10% FCS medium for 24 hrs; then medium was replaced with serum-free growth medium consisting of DMEM/F12 (1:1) supplemented with N2 supplement (Life Technologies, Gaithersburg, Md.) and 20 ng/ml of human recombinant FGF-2 (Peprotech, Rocky Hill, N.J.). Cell lines were labeled via infection with replication deficient GFP-expressing recombinant retrovirus LZRS-CAMut4GFP. […]

[3] = tested on: neural progenitor cells; assay: Differentiation of mouse neural progenitor cells with recombinant MCP-1, 5 days; type: cell-based; conditions: rmMCP-1 up to 100 ug/ml
Method: To determine if MCP-1 was acting directly on neural progenitor cells to mediate these effects, brains from wild type, MCP-1^−/−, or CCR2^−/− mice were enzymatically dissociated and neurosphere cultures established in growth medium (Neurobasal-A, B27 supplement, 10 ng/ml EGF, 20 ng/ml FGF-2). Neurospheres were dissociated at passage 2-3 and plated as monolayers on laminin coated dishes and then induced to differentiate by replacing growth medium with differentiation medium (Neurobasal-A, B27, 1 ng/ml FGF-2, 100 nM all-trans retinoic acid, 10 ng/ml BDNF, 10 ng/ml NT3). Increasing concentrations of recombinant mouse MCP-1 (rmMCP-1) were added to the medium and cells were allowed to differentiate for 5 days. Cells were then fixed and stained for Dcx (FIG. 11C-C). Within 5 days of differentiation, a proportion of cells became positive for Dcx. […] Similarly, addition of rmMCP-1 up to a final concentration of 100 ug/ml had no effect on the number of neurons produced.
Progenitor Cell Culture and Differentiation Whole brains from PO mouse pups were enzymatically digested with a mixture of papain, neutral protease, and DNAse. Neurospheres were cultured on uncoated plates with medium containing Neurobasal A (Gibco), L-glutamine, PSF, B-27 without vitamin A, 40 ng/ml FGF-2, and 40 ng/ml EGF. Cultures were passaged in parallel when reaching confluence and total viable cell counts were made using a hemocytometer to score trypan blue-excluding cells at each passage. Cells were induced to differentiate by plating dissociated cells into laminin-coated multi-chamber tissue culture slides (Nunc) in differentiation media, Neurobasal A, B-27 without vitamin A, 1% fetal bovine serum, 100 nM all trans-retinoic acid, 1 ng/ml FGF-2, 10 ng/ml BDNF, and 10 ng/ml NT3. […] Total nuclei per sample site was scored using DAPI, neurons were scored on the basis of Dcx immunoreactivity. No significant differences were detected in either growth or differentiation between wild type and MCP-1^−/− or CCR2^−/− mice

- probe trial performance, NSAID alone [1]: performed as badly as LPS-treated mice
- probe trial performance, NSAID alone ([1]; listed as celebrex): alone significantly impaired memory
Molecule: Cc1ccc(-c2cc(C(F)(F)F)nn2-c2ccc(S(N)(=O)=O)cc2)cc1 [Celebrex, celecoxib]
- distance swum to hidden platform in training, NSAID alone [1]: slight but significant increased distance swum
- distance swum to hidden platform in training, NSAID alone ([1]; listed as celebrex): slight but significant initial increase in swimming distance

Molecule: TNF-α
- decrease of in vitro neurogenesis (relative expression of Dcx) ([2]; recombinant IL-6 50 ng/ml or TNF-α 20 ng/ml, 60 hours): approximately 50%

Molecule: rmMCP-1: recombinant mouse monocyte chemoattractant protein-1 (Peprotech)
- extent of neuronal arborization [3]: Neither was the extent of arborization influenced
- number of Dcx-positive neurons produced [3]: no effect
- number of Dcx-positive neurons produced ([3]; listed as MCP-1): does not directly affect

B1: IL-1β: recombinant rat interleukin 1β (protein, UniProt Q63264 117-268, looked up)
Interleukin-1 beta: VPIRQLHCRLRDEQQKCLVLSDPCELKALHLNGQNISQQVVFSMSFVQGETSNDKIPVALGLKGLNLYLSCVMKDGTPTLQLESVDPKQYPKKKMEKRFVFNKIEVKTKVEFESAQFPNWYISTSQAEHRPVFLGNSNGRDIVDFTMEPVSS
- effect on in vitro neurogenesis (Dcx-expressing cells relative to control) [2]: not significant

B2: INF-γ: recombinant rat interferon γ (protein, UniProt P01581 23-156, looked up)
Interferon gamma: QGTLIESLESLKNYFNSSSMDAMEGKSLLLDIWRNWQKDGNTKILESQIISFYLRLFEVLKDNQAISNNISVIESHLITNFFSNSKAKKDAFMSIAKFEVNNPQIQHKAVNELIRVIHQLSPESSLRKRKRSRC
- effect on in vitro neurogenesis (Dcx-expressing cells relative to control) [2]: not significant
